Tests used:
SNB-19 = assay: Growth inhibition of human SNB19 cells incubated for 48 hrs by sulforhodamine B assay; type: functional, cell-based; conditions: SNB-19, 48 h
OVCAR-5 = assay: Growth inhibition of human OVCAR5 cells incubated for 48 hrs by sulforhodamine B assay; type: functional, cell-based; conditions: OVCAR-5, 48 h
OVCAR-8 = assay: Growth inhibition of human OVCAR8 cells assessed as cell growth at 0.1 uM incubated for 48 hrs by sulforhodamine B assay relative to control; type: functional; conditions: OVCAR-8, 48 h, read-out: Activity
SF-295 = assay: Growth inhibition of human SF295 cells assessed as cell growth at 0.1 uM incubated for 48 hrs by sulforhodamine B assay relative to control; type: functional; conditions: SF-295, 48 h, read-out: Activity
IGROV-1 = assay: Growth inhibition of human IGROV1 cells assessed as cell growth at 0.01 uM incubated for 48 hrs by sulforhodamine B assay relative to control; type: functional; conditions: IGROV-1, 48 h, read-out: Activity
PC-3 = assay: Growth inhibition of human PC3 cells incubated for 48 hrs by sulforhodamine B assay; type: functional, cell-based; conditions: PC-3, 48 h
MOLT-4 = assay: Growth inhibition of human MOLT4 cells assessed as cell growth at 1 uM incubated for 48 hrs by sulforhodamine B assay relative to control; type: functional; conditions: MOLT-4, 48 h, read-out: Activity
SN12C = assay: Growth inhibition of human SN12C cells assessed as cell growth at 0.01 uM incubated for 48 hrs by sulforhodamine B assay relative to control; type: functional; conditions: read-out: Activity
SR = assay: Growth inhibition of human SR cells assessed as cell growth at 0.01 uM incubated for 48 hrs by sulforhodamine B assay relative to control; type: functional; conditions: read-out: Activity
HCC 2998 = assay: Growth inhibition of human HCC2998 cells assessed as cell growth at 0.1 uM incubated for 48 hrs by sulforhodamine B assay relative to control; type: functional; conditions: HCC 2998, 48 h, read-out: Activity
HOP-92 = assay: Growth inhibition of human HOP92 cells assessed as cell growth at 10 uM incubated for 48 hrs by sulforhodamine B assay relative to control; type: functional; conditions: HOP-92, 48 h, read-out: Activity
[1] = read-out: LC50 (the source's name)
[2] = read-out: pLC50 (the source's name) (converted)

Row | Compound | GI50 (SNB-19; read-out: GI50) [µM] | CC50 (SNB-19; [1]) [µM] | TGI (SNB-19; read-out: TGI) [µM] | GI50 (SNB-19; read-out: pGI50 (converted)) [µM] | CC50 (SNB-19; [2]) [µM] | TGI (SNB-19; read-out: pTGI (converted)) [µM] | GI50 (OVCAR-5; read-out: GI50) [µM] | CC50 (OVCAR-5; [1]) [µM] | TGI (OVCAR-5; read-out: TGI) [µM] | GI50 (OVCAR-5; read-out: pGI50 (converted)) [µM] | CC50 (OVCAR-5; [2]) [µM] | TGI (OVCAR-5; read-out: pTGI (converted)) [µM] | growth at 0.1 µM (OVCAR-8) [%] | growth at 0.1 µM (SF-295) [%] | growth at 0.01 µM (IGROV-1) [%] | IC50 (PC-3) [µM] | GI50 (PC-3; read-out: GI50) [µM] | CC50 (PC-3; [1]) [µM] | TGI (PC-3; read-out: TGI) [µM] | GI50 (PC-3; read-out: pGI50 (converted)) [µM] | further results
1 | COc1cc(Cl)cc(-c2nn(-c3cccc(NC(=O)Nc4ccc(Cl)c(C(F)(F)F)c4)c3)cc2-c2ccncc2)c1 | 2.93 | > 100 | 17.5 | 1.17 | > 100 | 17.8 | 2.13 | 3.01 | 71.5 | 2.14 | 30.2 | 28.8 | 96 | 98 | 112 | 0.34 | 0.342 | > 100 | 21.2 | 0.339 | CC50 (PC-3; [2]): > 100 µM; TGI (PC-3; read-out: pTGI (converted)): 2.14 µM; growth at 1 µM (MOLT-4): 58%; growth at 0.01 µM (SN12C): 98%; growth at 0.01 µM (SR): 95%; growth at 0.1 µM (HCC 2998): 94%
2 | COc1cc(Cl)cc(-c2nn(-c3cccc(NC(=O)c4ccc(N5CCOCC5)c(C(F)(F)F)c4)c3)cc2-c2ccncc2)c1 | > 100 | > 100 | > 100 | > 100 | > 100 | > 100 | 3.25 | > 100 | > 100 | 32.4 | > 100 | > 100 | 100 | 94 | 103 | 3.3 | 3.3 | > 100 | > 100 | 3.31 | CC50 (PC-3; [2]): > 100 µM; TGI (PC-3; read-out: pTGI (converted)): > 100 µM; growth at 1 µM (MOLT-4): 77%; growth at 0.01 µM (SN12C): 97%; growth at 0.01 µM (SR): 96%; growth at 0.1 µM (HCC 2998): 94%
3 | O=C(Nc1cccc(-n2cc(-c3ccncc3)c(-c3cc(O)cc(Cl)c3)n2)c1)Nc1ccc(Cl)c(Cl)c1 | 3.38 | > 100 | 19 | 3.16 | > 100 | 19.1 | 2.14 | 5.42 | 51.6 | 2.14 | 53.7 | 6.17 | 97 | 87 | 98 | 1.69 | 1.59 | > 100 | 58.8 | 1.7 | growth at 10 µM (HOP-92): -30.5%; CC50 (PC-3; [2]): > 100 µM; TGI (PC-3; read-out: pTGI (converted)): 5.62 µM; growth at 1 µM (MOLT-4): 84%; growth at 0.01 µM (SN12C): 100%; growth at 0.01 µM (SR): 57%; growth at 0.1 µM (HCC 2998): 110%
4 | COc1cc(Cl)cc(-c2nn(-c3cccc(NC(=O)c4cccc(C(F)(F)F)c4)c3)cc2-c2ccncc2)c1 | > 100 | > 100 | > 100 | > 100 | > 100 | > 100 | > 100 | > 100 | > 100 | > 100 | > 100 | > 100 | 94 | 90 | 94 | 2.71 | 2.71 | > 100 | > 100 | 2.69 | CC50 (PC-3; [2]): > 100 µM; TGI (PC-3; read-out: pTGI (converted)): > 100 µM; growth at 1 µM (MOLT-4): 72%; growth at 0.01 µM (SN12C): 99%; growth at 0.01 µM (SR): 57%; growth at 0.1 µM (HCC 2998): 104%
5 | COc1cc(Cl)cc(-c2nn(-c3cccc(NC(=O)c4cc(C(F)(F)F)cc(C(F)(F)F)c4)c3)cc2-c2ccncc2)c1 |  |  |  |  |  |  |  |  |  |  |  |  |  |  |  |  |  |  |  |  | growth at 10 µM (HOP-92): 46.8%
6 | COc1cc(Cl)cc(-c2nn(-c3cccc(NC(=O)Nc4cccc(C(F)(F)F)c4)c3)cc2-c2ccncc2)c1 | 2.77 | > 100 | 35.9 | 2.75 | > 100 | 35.5 | 3.06 | > 100 | 30.1 | 3.09 | > 100 | 30.2 | 99 | 57 | 106 | 0.42 | 0.417 | > 100 | 32 | 0.417 | growth at 10 µM (HOP-92): -27.3%; CC50 (PC-3; [2]): > 100 µM; TGI (PC-3; read-out: pTGI (converted)): 3.24 µM; growth at 1 µM (MOLT-4): 55%; growth at 0.01 µM (SN12C): 101%; growth at 0.01 µM (SR): 89%; growth at 0.1 µM (HCC 2998): 98%
7 | O=C(Nc1cccc(-n2cc(-c3ccncc3)c(-c3cc(O)cc(Cl)c3)n2)c1)c1ccc(N2CCOCC2)c(C(F)(F)F)c1 | 3.33 | > 100 | 33.8 | 3.31 | > 100 | 33.9 | 14.8 | > 100 | 39.6 | 14.8 | > 100 | 39.8 | 101 | 90 | 93 | 1.09 | 1.09 | > 100 | 45.6 | 1.1 | CC50 (PC-3; [2]): > 100 µM; TGI (PC-3; read-out: pTGI (converted)): 45.7 µM; growth at 1 µM (MOLT-4): 54%; growth at 0.01 µM (SN12C): 94%; growth at 0.01 µM (SR): 92%; growth at 0.1 µM (HCC 2998): 100%
8 | O=C(Nc1cccc(-n2cc(-c3ccncc3)c(-c3cc(O)cc(Cl)c3)n2)c1)Nc1ccc(Cl)c(C(F)(F)F)c1 | 3.7 | > 100 | 15.9 | 3.72 | > 100 | 16.6 | 3.79 | 54.1 | 13.1 | 3.8 | 83.2 | 13.2 | 100 | 93 | 94 | 2.1 | 2.1 | 90.3 | 84.2 | 2.63 | CC50 (PC-3; [2]): 79.4 µM; TGI (PC-3; read-out: pTGI (converted)): 6.46 µM; growth at 1 µM (MOLT-4): 52%; growth at 0.01 µM (SN12C): 102%; growth at 0.01 µM (SR): 105%; growth at 0.1 µM (HCC 2998): 97%
9 | COc1cc(Cl)cc(-c2nn(-c3cccc(NC(=O)Nc4ccc(Cl)c(Cl)c4)c3)cc2-c2ccncc2)c1 | 3.51 | > 100 | > 100 | 3.55 | > 100 | > 100 | 4.3 | > 100 | > 100 | 4.37 | > 100 | > 100 | 101 | 57 | 98 | 1.13 | 1.13 | > 100 | 52.5 | 1.12 | CC50 (PC-3; [2]): > 100 µM; TGI (PC-3; read-out: pTGI (converted)): 5.25 µM; growth at 1 µM (MOLT-4): 70%; growth at 0.01 µM (SN12C): 97%; growth at 0.01 µM (SR): 94%; growth at 0.1 µM (HCC 2998): 96%
10 | O=C(Nc1cccc(-n2cc(-c3ccncc3)c(-c3cc(O)cc(Cl)c3)n2)c1)c1cc(C(F)(F)F)cc(C(F)(F)F)c1 | 7.03 | > 100 | > 100 | 7.08 | > 100 | > 100 | 8.23 | > 100 | 38.4 | 8.32 | > 100 | 38 | 100 | 89 | 100 | 2.28 | 2.28 | > 100 | 22.5 | 2.29 | CC50 (PC-3; [2]): > 100 µM; TGI (PC-3; read-out: pTGI (converted)): 28.2 µM; growth at 1 µM (MOLT-4): 78%; growth at 0.01 µM (SN12C): 97%; growth at 0.01 µM (SR): 94%; growth at 0.1 µM (HCC 2998): 95%
